Measurements reported in patent US9814672B2, “Echogenic vehicle for clinical delivery of plasminogen activator and other fibrin-binding therapeutics to thrombi” (priority 2007, dated 2017).

Tested on: whole porcine blood clots
Assay: In vitro thrombolysis, percent clot mass loss
Conditions: 1 MHz CW, 2 W/cm^2, 2 min vs. no ultrasound
Experimental: Whole porcine blood clots were used to evaluate thrombolysis. Blood was obtained from non-heparinized Yucatan miniswine. The miniswine were 6-8 weeks old and weighed 28.5±6.5 lb. Baseline blood analysis data, including complete blood count, prothrombin time, activated partial thromboplastin time, D-dimer, and fibrinogen were obtained to ensure normal clotting parameters. Whole blood clots were made by aliquoting 1.5 ml fresh porcine blood into 1.3-cm inner diameter vacutainer tubes; the tubes were incubated in a 37° C. water bath for 3 h. The clots were then stored at 4° C. until use, which ensured complete clot maturation and retraction. This type of clot is fairly similar to physiologic venous clots. Most miniswine used in this study were slightly anemic (hematocrit of 27.8±3.0%). Only donors with values of <250 ng/ml for the D-dimer test, <15 s for prothrombin time, <18 s for activated partial thromboplastin time, and <300 mg/dl fibrinogen concentration were considered acceptable. The resulting clots were dark red, cylindrical, and weighed 0.47±0.11 g. All unused clots were discarded after 2 weeks.
Whole porcine blood clots were blotted gently and weighed using an analytical balance. […]
Porcine clots were treated with 1 MHz continuous wave (CW) ultrasound with an intensity of 2 W/cm^2, for 2 min (Sonitron 1000; Rich-Mar). The calculated peak negative acoustic pressure output was 0.12 MPa. […]

“tPA: Recombinant tissue-plasminogen activator (Activase®, Genentech Inc.), used as the thrombolytic agent [reference compound]” was tested, and the “effect of ultrasound exposure on thrombolysis” value was “no significant augmentation of thrombolysis”.
